Read-outs that look alike come from different tables or passages of the source.
Tested on: HL60 cell line
Test: Combination study, modulatory effect: IC50 of chemotherapy drug without and with cannabinoid-pair (72 h)
Type: cell-based
Settings: Homo sapiens, HL-60, 72 h, HL60, 72 h, read-out: IC50 for percentage cell viability
Procedure: FIG. 2. Sensitising chemotherapy action with low doses of cannabinoids. […] The effect of a low dose of CBD/THC or CBD/CBG on the activity of CYT and VIN was also assessed. IC50 values for percentage cell viability were determined by emax models.
Cytarabine (CYT), (Sigma) and vincristine (VIN), (Sigma) were reconstituted in PBS at a stock concentration of 10 mM, and kept at −20° C. for no more than four weeks.
The ability of cannabinoids to modify the efficacy CYT and VIN was studied by assessing and comparing the IC50 of the anti-leukaemia drugs in the absence and presence of the cannabinoids.
The cannabinoids tested were CBD+CBG and CBD+THC, and these were used at a single total sub-optimal concentration of 1 μM in CEM and 5 μM HL60.
Drugs were added (CYT and VIN over a range of concentrations) and cell number determined after 72 h.
The ability of a sub-effective concentration of cannabinoid to alter the efficacy of CYT or VIN was determined by comparing the IC50s of the chemotherapy agents in the absence or presence of the cannabinoid-pair.

Nc1ccn([C@@H]2O[C@H](CO)[C@@H](O)[C@@H]2O)c(=O)n1 [cytarabine, Cytarabine]
IC50 (CBD+CBG added (sub-optimal total 5 μM in HL60)): 0.15 µM | IC50 (CBD+THC added (sub-optimal total 5 μM in HL60)): 0.008 µM | IC50 (chemotherapy drug alone): 0.1 µM

— patent publication US12161607B2, “Combination of cannabinoids in the treatment of leukemia” (Jazz Pharmaceuticals Research UK Limited, priority 2017, dated 2024)
